One assay concerns male Sprague-Dawley rats. Kind of assay: Cold-Evoked Cardiovascular Pressor Responses (anesthetized rat cold pressor paradigm). In kind it is in vivo. The note with it: HPbCD, 1.5 hours relative to Cold Challenge, Na salt form. An excerpt: Compounds of the formula (I) can be tested in animals and humans for their ability to mitigate cardiovascular pressor responses evoked by cold exposure. Seasonal environmental cooling is directly associated with elevated blood pressure and an increased incidence of coronary events in human populations worldwide (Barnett, A G et al. J Epidemiol Community Heath 2005, 59 551-557). Cold-evoked pulmonary hypertention and cold aggravation of chronic obstructive pulmonary disease are clinical indications susceptible to heightened cardiopulmonary sensitivity to cold (Marno P et al. Eur Respiratory Review 2006, 15 (101): 185.; Acikel M et al Int J of Cardiol (2004) 97: 187-192). The clinical cold pressor test assesses changes in blood pressure (BP) and cold pain perception during a 2-3 minute immersion of one hand into ice water. […] Compounds of the formula (I) can be studied in an anesthetized rat cold pressor paradigm to determine whether TRPM8 antagonism would interfere with the blood pressure pressor response to cold stimulation of the forepaws. Male Sprague-Dawley rats (300-450 g) anesthetized with sodium pentobarbital are instrumented with a jugular catheter and an indwelling carotid artery cannula connected to a pressure transducer. Vehicle (e.g. 20% HPbCD in sterile water) or test compound is infused (1 mL/kg) over one minute through the intravenous catheter. Ten minutes later both forelimbs are packed in crushed ice for 5 minutes. Alternatively, the test compound and vehicle treatments may be administered orally at an appropriated time prior to the surgical cannulations and cold challenge. Percent changes in mean arterial pressure in response to this cold stimulus are calculated for vehicle and test compound pretreatments. Percent inhibition attributed to treatment with test compound is then determined using the following formula: % Inhibition=[1−(cold evoked % change in BP post-test compound/cold evoked % change in BP post-vehicle)]×100.

Another assay concerns Male Sprague Dawley rats. Description: Rightward Shift of Icilin Dose Effect Curve in Rats. Format: in vivo. The note with it: Rattus norvegicus; compound 3 mg/kg p.o., 60 pre-icilin; icilin i.p.; read-out: Icilin ED50, mg/kg, i.p., compound pretreatment. How it is done: Male Sprague Dawley rats (200-400 g, Charles River Labs, n=6-9/treatment) were administered icilin in a suitable vehicle (e.g. PEG-400, 10% Solutol) at 0.1-30 mg/kg, i.p. Spontaneous “wet-dog” shakes were counted 10-20 minutes post-icilin in order to generate a icilin dose-effect curve. A compound of the present invention was administered orally in hydroxypropyl-β-cyclodextrin 60 minutes before icilin challenge to assess the compound's ability to inhibit spontaneous “wet-dog” shakes (WDS) produced by a range of icilin doses. The ED50 of the icilin dose-effect curve generated in the presence of TRPM8 antagonist may be compared to that generated in the presence of vehicle to determine the magnitude of rightward shift as shown below in Table 7.

Here are results for 1 compound from patent US9434711B2 (Janssen Pharmaceutica, NV, priority 2007, dated 2016).

`Cc1c(N(Cc2ccc(F)c(C(F)(F)F)c2)S(=O)(=O)c2ccc(C(=O)O)cc2)sc2ccccc12` [Compound 306, N-(3-Methyl-benzo[b]thiophen-2-yl)-N-(4-fluoro-3-trifluoromethyl-benzyl)-4-carboxy-benzenesulfonamide]: the “Percent Inhibition, relative to vehicle” value amounted to 16% with male Sprague-Dawley rats (dose 1 p.o.), 41% with male Sprague-Dawley rats (dose 3 p.o.), 62% in the assay on male Sprague-Dawley rats (dose 10 p.o.) and 75% in the assay with male Sprague-Dawley rats (dose 30 p.o.). Further, in the assay with Male Sprague Dawley rats, the ED50 stood at 2.96 mg/kg.
